The test addresses KDM5B (Homo sapiens (Human), UniProt Q9UGL1). The test can be described thus: KDM5B TR-FRET Enzyme Activity Assay. Conditions: LANCE TR-FRET; 5 nM full-length recombinant KDM5B; ten point titration 100000 nM to 5.08 nM. The format is biochemical. As for the experimental part: KDM5B TR-FRET Enzyme Activity Assay
KDM5B enzymatic activity was determined with the LANCE (Lanthanide Chelate Excite) TR-FRET (Time-resolved fluorescence resonance energy transfer) assay. […] To each well of a white Greiner 1536 Lumitrac 1536 well-plate, 50 nL of compound (100 fold dilution in final assay volume of 5 μL) was dispensed, followed by the addition of 4 μL of 1× assay buffer (50 mM Hepes 7.3, 0.5 mM TCEP, 0.005% Brij-35, 0.02% BSA, 50 μM Na-L-Ascorbate and 2 μM AmFe(II)Sulfate) containing 5 nM of Full-length KDM5B enzyme (recombinant protein from baculovirus-transfected Sf21 cells: full-length KDM5B; MW=176.825 kDa). Following a 30 minutes compound and enzyme incubation in a humidified chamber, each reaction was initiated by the addition of 1 μL 1× assay buffer containing […] biotinylated H3K4Me3 peptide, and 500 nM α-ketoglutarate. The final reaction in each well of 5 μL consists of 5 nM KDM5B, 500 nM biotinylated-peptide, and 500 nM α-ketoglutarate. De-methylation reactions were allowed to proceed for 60 minutes. Reactions were immediately quenched by the addition of 5 uL of 2× Lance Detection Buffer (PerkinElmer) with 0.5 mM EDTA and 2 nM of Eu-anti-H3K4Me1-2 antibody, and 30 nM of Streptavidin-conjugated Dylight 650 detection reagents. After 60 minutes incubation with detection reagents, reaction plates were read on a PerkinElmer EnVision plate reader using standard TR-FRET protocol. Briefly, excitation of donor molecules (Eu-chelate-anti-H3K4Me1-2-antibody) with a laser light source at 337 nm produces energy that can be transferred to Dylight-650 acceptor molecules if this donor:acceptor pair is within close proximity. Fluorescence intensity at both 665 nm (acceptor) and 615 nm (donor) are measured and a TR-FRET ratio calculated for each well (acceptor intensity/donor intensity). IC50 values were determined by 4 parameter robust fit of TR-FRET ratio values vs. (Log 10) compound concentrations.

KDM5B, sequence (Q9UGL1 whole entry): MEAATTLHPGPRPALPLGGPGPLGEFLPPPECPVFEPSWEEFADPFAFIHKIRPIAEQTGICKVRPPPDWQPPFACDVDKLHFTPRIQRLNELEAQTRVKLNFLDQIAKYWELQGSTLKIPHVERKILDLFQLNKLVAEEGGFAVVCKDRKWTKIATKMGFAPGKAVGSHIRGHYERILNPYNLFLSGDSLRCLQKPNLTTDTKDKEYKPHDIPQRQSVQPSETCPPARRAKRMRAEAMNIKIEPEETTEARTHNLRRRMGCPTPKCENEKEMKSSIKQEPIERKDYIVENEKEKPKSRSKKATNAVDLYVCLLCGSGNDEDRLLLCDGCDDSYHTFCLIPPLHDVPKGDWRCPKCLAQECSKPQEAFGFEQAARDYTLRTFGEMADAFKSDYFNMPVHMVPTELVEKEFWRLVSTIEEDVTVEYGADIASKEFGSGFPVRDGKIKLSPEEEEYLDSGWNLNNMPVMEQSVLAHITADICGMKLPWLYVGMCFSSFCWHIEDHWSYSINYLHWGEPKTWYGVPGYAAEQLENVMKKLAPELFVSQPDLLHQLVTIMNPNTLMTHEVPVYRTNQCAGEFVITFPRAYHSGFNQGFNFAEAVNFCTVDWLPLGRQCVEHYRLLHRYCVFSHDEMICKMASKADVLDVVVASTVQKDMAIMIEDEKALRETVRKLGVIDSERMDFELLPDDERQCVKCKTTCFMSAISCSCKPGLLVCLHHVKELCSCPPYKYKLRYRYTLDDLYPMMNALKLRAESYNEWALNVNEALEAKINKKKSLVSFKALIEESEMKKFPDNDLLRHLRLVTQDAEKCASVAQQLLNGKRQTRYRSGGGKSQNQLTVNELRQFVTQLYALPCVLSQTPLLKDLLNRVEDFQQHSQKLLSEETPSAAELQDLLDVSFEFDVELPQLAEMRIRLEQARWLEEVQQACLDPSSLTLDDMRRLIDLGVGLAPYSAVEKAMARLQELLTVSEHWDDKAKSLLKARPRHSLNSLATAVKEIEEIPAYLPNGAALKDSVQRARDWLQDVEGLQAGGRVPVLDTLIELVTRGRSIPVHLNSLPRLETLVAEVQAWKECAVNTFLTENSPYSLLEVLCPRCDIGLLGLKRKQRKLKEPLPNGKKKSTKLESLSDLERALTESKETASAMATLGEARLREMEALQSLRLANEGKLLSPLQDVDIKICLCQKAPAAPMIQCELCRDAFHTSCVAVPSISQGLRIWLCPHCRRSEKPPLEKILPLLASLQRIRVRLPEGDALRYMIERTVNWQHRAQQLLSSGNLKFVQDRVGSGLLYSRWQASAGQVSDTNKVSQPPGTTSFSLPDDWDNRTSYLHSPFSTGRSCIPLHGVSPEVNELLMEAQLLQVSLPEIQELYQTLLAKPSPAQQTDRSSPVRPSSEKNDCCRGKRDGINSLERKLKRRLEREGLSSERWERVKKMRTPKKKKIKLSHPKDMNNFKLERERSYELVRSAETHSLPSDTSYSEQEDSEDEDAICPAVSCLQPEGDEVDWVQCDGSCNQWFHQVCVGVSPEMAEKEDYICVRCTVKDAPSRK

Consider `CC(C)c1c(-c2cnn(Cc3ccccc3)c2)[nH]c2ncnn2c1=O` [Example 11-9, 5-(1-benzyl-1H-pyrazol-4-yl)-6-(1-methylethyl)[1,2,4]triazolo[1,5-a]pyrimidin-7(4H)-one], for which the IC50 was 7.3 nM.

In the case of `CC(C)c1c(-c2ccc(N3CCOCC3)cc2)[nH]c2ncnn2c1=O` [Example 11-10, 6-(1-methylethyl)-5-(4-morpholin-4-ylphenyl)[1,2,4]triazolo[1,5-a]pyrimidin-7(4H)-one], the IC50 was 7.52 nM.

In the case of `CC(C)c1c(-c2ccc(F)cc2)[nH]c2ncnn2c1=O` [Example 11-11, 5-(4-fluorophenyl)-6-(1-methylethyl)[1,2,4]triazolo[1,5-a]pyrimidin-7(4H)-one], the IC50 worked out at 160 nM.

`CC(C)Cn1cc(-c2[nH]c3ncnn3c(=O)c2C(C)C)cn1` [Example 11-12, 6-(1-methylethyl)-5-[1-(2-methylpropyl)-1H-pyrazol-4-yl][1,2,4]triazolo[1,5-a]pyrimidin-7(4H)-one]: the IC50 came to 5.08 nM.

Consider `CC(C)c1c(-c2cnn(CC3(F)CCCC3)c2)[nH]c2ncnn2c1=O` [Example 11-13, 5-{1-[(1-fluorocyclopentyl)methyl]-1H-pyrazol-4-yl}-6-(1-methylethyl)[1,2,4]triazolo[1,5-a]pyrimidin-7(4H)-one], for which the half-inhibitory concentration (IC50) was 5.08 nM.

With `CC(C)c1c(-c2cnn(CC3CC3)c2)[nH]c2ncnn2c1=O` [Example 11-14, 5-[1-(cyclopropylmethyl)-1H-pyrazol-4-yl]-6-(1-methylethyl)[1,2,4]triazolo[1,5-a]pyrimidin-7(4H)-one], the IC50 stood at 5.08 nM.

For `CC(C)c1c(-c2cnn(Cc3ccncc3)c2)[nH]c2ncnn2c1=O` [Example 11-15, 6-(1-methylethyl)-5-[1-(pyridin-4-ylmethyl)-1H-pyrazol-4-yl][1,2,4]triazolo[1,5-a]pyrimidin-7(4H)-one], the IC50 was 7.5 nM.

For `COCCn1cc(-c2[nH]c3ncnn3c(=O)c2C(C)C)cn1` [Example 11-16, 5-[1-(2-methoxyethyl)-1H-pyrazol-4-yl]-6-(1-methylethyl)[1,2,4]triazolo[1,5-a]pyrimidin-7(4H)-one], the IC50 is 5.73 nM.

Turning to `CC(C)c1c(-c2cnn(-c3ccc(F)cc3)c2)[nH]c2ncnn2c1=O` [Example 11-17, 5-[1-(4-fluorophenyl)-1H-pyrazol-4-yl]-6-(1-methylethyl)[1,2,4]triazolo[1,5-a]pyrimidin-7(4H)-one], the half-inhibitory concentration (IC50) is 6.47 nM.

As to `CC(C)c1c(-c2cnn(C3CC3)c2)[nH]c2ncnn2c1=O` [Example 11-18, 5-(1-cyclopropyl-1H-pyrazol-4-yl)-6-(1-methylethyl)[1,2,4]triazolo[1,5-a]pyrimidin-7(4H)-one], the half-inhibitory concentration (IC50) turned out to be 5.74 nM.

For `CCn1cc(-c2[nH]c3ncnn3c(=O)c2C(C)C)cn1` [Example 11-19, 5-(1-ethyl-1H-pyrazol-4-yl)-6-(1-methylethyl)[1,2,4]triazolo[1,5-a]pyrimidin-7(4H)-one], the half-maximal inhibitory concentration (IC50) came out at 6.27 nM.

As for `CC(C)c1c(-c2cnn(C(C)C)c2)[nH]c2ncnn2c1=O` [Example 11-20, 6-(1-methylethyl)-5-[1-(1-methylethyl)-1H-pyrazol-4-yl][1,2,4]triazolo[1,5-a]pyrimidin-7(4H)-one], the IC50 turned out to be 5.08 nM.

As for `CCCn1cc(-c2[nH]c3ncnn3c(=O)c2C(C)C)cn1` [Example 11-21, 6-(1-methylethyl)-5-(1-propyl-1H-pyrazol-4-yl)[1,2,4]triazolo[1,5-a]pyrimidin-7(4H)-one], the IC50 amounted to 5.08 nM.

With `C=C(CCC)c1[nH]c2ncnn2c(=O)c1C(C)C` [Example 11-22, 6-(1-methylethyl)-5-(1-methylidene-butyl)[1,2,4]triazolo[1,5-a]pyrimidin-7(4H)-one], the IC50 was 808 nM.

Turning to `COC/C=C/c1[nH]c2ncnn2c(=O)c1C(C)C` [Example 11-23, 5-[(1E)-3-methoxyprop-1-en-1-yl]-6-(1-methylethyl)[1,2,4]triazolo[1,5-a]pyrimidin-7(4H)-one], the half-inhibitory concentration (IC50) amounted to 27.7 nM.

Consider `CC(C)c1c(-c2ccncc2)[nH]c2ncnn2c1=O` [Example 11-24, 6-(1-methylethyl)-5-pyridin-4-yl[1,2,4]triazolo[1,5-a]pyrimidin-7(4H)-one], for which the IC50 came out at 41.2 nM.

Take `CC(C)c1c(-c2cccnc2)[nH]c2ncnn2c1=O` [Example 11-25, 6-(1-methylethyl)-5-pyridin-3-yl[1,2,4]triazolo[1,5-a]pyrimidin-7(4H)-one]: the half-maximal inhibitory concentration (IC50) turned out to be 47.1 nM.

In the case of `CC(C)c1c(-c2cncnc2)[nH]c2ncnn2c1=O` [Example 11-26, 6-(1-methylethyl)-5-pyrimidin-5-yl[1,2,4]triazolo[1,5-a]pyrimidin-7(4H)-one], the IC50 was found to be 103 nM.

For the compound `CC(C)c1c(-c2ccn(C)c2)[nH]c2ncnn2c1=O` [Example 11-27, 6-(1-methylethyl)-5-(1-methyl-1H-pyrrol-3-yl)[1,2,4]triazolo[1,5-a]pyrimidin-7(4H)-one], the IC50 amounted to 17.9 nM.

`Cc1[nH]ncc1-c1[nH]c2ncnn2c(=O)c1C(C)C` [Example 11-28, 6-(1-methylethyl)-5-(5-methyl-1H-pyrazol-4-yl)[1,2,4]triazolo[1,5-a]pyrimidin-7(4H)-one]: the IC50 was 155 nM.

On to `CC(C)c1c(C2=CCCCC2)[nH]c2ncnn2c1=O` [Example 11-29, 5-cyclohex-1-en-1-yl-6-(1-methylethyl)[1,2,4]triazolo[1,5-a]pyrimidin-7(4H)-one], for which the half-inhibitory concentration (IC50) came out at 399 nM.

As to `CC(C)c1c(C2=COCCC2)[nH]c2ncnn2c1=O` [Example 11-30, 5-(3,4-dihydro-2H-pyran-5-yl)-6-(1-methylethyl)[1,2,4]triazolo[1,5-a]pyrimidin-7(4H)-one], the IC50 was 254 nM.

Take `CC(C)c1c(C2=CCCOC2)[nH]c2ncnn2c1=O` [Example 11-31, 5-(5,6-dihydro-2H-pyran-3-yl)-6-(1-methylethyl)[1,2,4]triazolo[1,5-a]pyrimidin-7(4H)-one]: the IC50 came to 372 nM.

`CC(C)c1c(-c2ccccc2F)[nH]c2ncnn2c1=O` [Example 11-32, 5-(2-fluorophenyl)-6-(1-methylethyl)[1,2,4]triazolo[1,5-a]pyrimidin-7(4H)-one]: the IC50 was 394 nM.

Turning to `CC(C)c1c(-c2cccc(F)c2)[nH]c2ncnn2c1=O` [Example 11-33, 5-(3-fluorophenyl)-6-(1-methylethyl)[1,2,4]triazolo[1,5-a]pyrimidin-7(4H)-one], the IC50 came to 136 nM.

In the case of `Cc1noc(C)c1-c1[nH]c2ncnn2c(=O)c1C(C)C` [Example 11-34, 5-(3,5-dimethylisoxazol-4-yl)-6-(1-methylethyl)[1,2,4]triazolo[1,5-a]pyrimidin-7(4H)-one], the concentration for half-maximal inhibition (IC50) is 11100 nM.

As for `CC(C)c1c(C2=CCCN(C)C2)[nH]c2ncnn2c1=O` [Example 11-35, 6-(1-methylethyl)-5-(1-methyl-1,2,5,6-tetrahydropyridin-3-yl)[1,2,4]triazolo[1,5-a]pyrimidin-7(4H)-one], the half-inhibitory concentration (IC50) turned out to be 506 nM.

For the compound `CC(C)c1c(C2=CCC(O)CC2)[nH]c2ncnn2c1=O` (stereo not shown) [Example 11-36, 5-(4-hydroxycyclohex-1-en-1-yl)-6-(1-methylethyl)[1,2,4]triazolo[1,5-a]pyrimidin-7(4H)-one], the concentration for half-maximal inhibition (IC50) was 137 nM.

As for `CC(C)c1c(-c2cccc(C#N)c2)[nH]c2ncnn2c1=O` [Example 11-37, 3-[6-(1-methylethyl)-7-oxo-4,7-dihydro[1,2,4]triazolo[1,5-a]pyrimidin-5-yl]benzonitrile], the IC50 came out at 21.6 nM.

Regarding `CC(C)c1c(-c2ccc(C#N)cc2)[nH]c2ncnn2c1=O` [Example 11-38, 4-[6-(1-methylethyl)-7-oxo-4,7-dihydro[1,2,4]triazolo[1,5-a]pyrimidin-5-yl]benzonitrile], the IC50 worked out at 21.6 nM.

For the compound `CC(C)c1c(-c2cnn(Cc3ccccn3)c2)[nH]c2ncnn2c1=O` [Example 11-39, 6-(1-methylethyl)-5-[1-(pyridin-2-ylmethyl)-1H-pyrazol-4-yl][1,2,4]triazolo[1,5-a]pyrimidin-7(4H)-one], the half-inhibitory concentration (IC50) turned out to be 5.83 nM.

As for `CC(C)c1c(-c2cnn(Cc3cccnc3)c2)[nH]c2ncnn2c1=O` [Example 11-40, 6-(1-methylethyl)-5-[1-(pyridin-3-ylmethyl)-1H-pyrazol-4-yl][1,2,4]triazolo[1,5-a]pyrimidin-7(4H)-one], the IC50 is 5.77 nM.

In the case of `CC(C)c1c(-c2ccc(N3CCCCC3)cc2)[nH]c2ncnn2c1=O` [Example 11-41, 6-(1-methylethyl)-5-(4-piperidin-1-ylphenyl)[1,2,4]triazolo[1,5-a]pyrimidin-7(4H)-one], the IC50 turned out to be 11.8 nM.

Turning to `CC(C)c1c(-c2cccc(N3CCCCC3)c2)[nH]c2ncnn2c1=O` [Example 11-42, 6-(1-methylethyl)-5-(3-piperidin-1-ylphenyl)[1,2,4]triazolo[1,5-a]pyrimidin-7(4H)-one], the half-inhibitory concentration (IC50) was 74.7 nM.

One may read the IC50 as the concentration that gives 50% inhibition.

The values are drawn from patent publication US10975084B2, “KDM5 inhibitors” (Merck Sharp & Dohme Corp., priority 2016, dated 2021).
